Laboratory results reported in the NIST ThermoML archive (doi:10.1021/acs.jced.6b00139).
Numbers after ± are expanded uncertainties.

Details: Liquid, Ebulliometric method (Recirculating still)

vapor or sublimation pressure (388.15 K): 153.7 ± 1 kPa
vapor or sublimation pressure (398.15 K): 200.6 ± 1 kPa
Compound: O=CO [formic acid]
